Publication PMC9921564, “Novel Indole-Containing Hybrids Derived from Millepachine: Synthesis, Biological Evaluation and Antitumor Mechanism Study” (Molecules, 2023)

Experiments:
[1] = tested on: MCF-7 (human breast carcinoma cell line); test: CCK-8 antiproliferative assay, MCF-7; assay type: cell-based; conditions: MCF7, 48 h, read-out: IC50, Mean ± SE, MCF-7
[2] = tested on: MCF-7/DOX (MCF-7 cell line resistant to doxorubicin); test: CCK-8 cytotoxicity, MCF-7/DOX; assay type: cell-based; conditions: Homo sapiens, MCF7-DOX; 48 h, CCK-8, doxorubicin-resistant; read-out: IC50, Mean ± SE, MCF-7/DOX
Method: Besides the high cytotoxicity, drug resistance is the other limiting factor of chemotherapeutics. In this study, the cytotoxicities of compound 14b towards five kinds of drug-resistant cancer cell lines were also evaluated. Except three kinds of cell lines that are resistant to three drugs commonly used in clinical practice, two kinds of cell lines that are resistant to MTAs were also evaluated.
A549 (non-small-cell-lung cancer cell line), Caski (human epithelial cervical cancer cell line), HepG2 (human liver carcinoma cell line), MCF-7 (human breast carcinoma cell line), C42B (human prostate cancer line C42B), L-02 (human normal hepatocytes), RWPE-1 (human prostate epithelial cells) and MCF-10A (human normal mammary epithelial cells) were obtained from National Collection of Authenticated Cell Cultures (Shanghai, China). […]
After 24 h, the medium containing different concentrations of tested compounds were added for another 48 h. […] The optical density was recorded with a microplate reader at 570 nm (Thermo Scientific, Varioskan LUX). All the experiments were repeated independently at least three times and the IC50 values were calculated […]
(§1) The fluorescence intensity enhancement (emission wavelength is 410 nm, excitation wavelength is 340 nm) was recorded every 60 s for 60 min in a multifunction microplate reader (Molecular Devices, Flex Station 3). […]

[3] = tested on: A549 cells; test: intracellular microtubule morphology by immunofluorescence; assay type: cell-based, human; conditions: A549, 10, 20 and 50 nM, 12 h
Method: Tubulin–microtubule homeostasis is crucial for cell mitosis.
Figure 2 Effect of compound 14b on tubulin. […] The experiments were performed at least three times, and representative images are shown. Scale bars are 10 μm. […] The backbone of tubulin is shown in ribbon representation (α-tubulin, yellow; β-tubulin, green). […] The data were shown as mean ± SE (standard error) of at least three independent experiments.
(§2) S Ⅳ. Biological evaluation methods
(§3) The cells grown in logarithmical phase were seeded in 96-well plates with the density of 5×10^3/well.
(§4) After 24 h, the medium containing different concentrations of tested compounds were added for another 48 h. Then, CCK-8 reagents were added to cells and continued to culture for 2 h. The optical density was recorded with a microplate reader at 570 nm (Thermo Scientific, Varioskan LUX). All the experiments were repeated independently at least three times and the IC50 values were calculated […]
(§5) S2. In vitro tubulin polymerization inhibition assay
The in vitro tubulin polymerization inhibition assay was conducted according to the manufacturer ’s instruction (cytoskeleton, cat. no. BK011P). Briefly, 5 μL of the tested compounds at the indicated

[4] = tested on: A549 cells; test: cell cycle analysis by flow cytometry (PI); assay type: cell-based, human; conditions: 24 h, control 14.92%
Method: Microtubules play an important role in maintaining the normal process of cell mitosis.
Figure 3 Compound 14b induced cell cycle arrest at the G2/M phase. (A) The PI-stained DNA content detected by flow cytometry. A549 cells were treated with or without compound 14b at concentrations of 10, 20 and 50 nM for 24 h; then, the cells were harvested for cell cycle analysis by flow cytometry. (B) Quantitative analysis of the percentage of cells in each cell cycle phase by CytExpert analysis software. The experiments were performed at least three times, and the results of the representative experiments are shown.
as §2, §3, §4, §5
The in vitro tubulin polymerization inhibition assay was conducted according to the manufacturer ’s instruction (cytoskeleton, cat. no. BK011P). Briefly, 5 μL of the tested compounds at the indicated concentrations which were prepared with the buffer solution (containing 80.0 mM piperazine-N,N-bis(2-ethanesulfonic acid) sequiso-dium salt (pH 6.9), 10.2% glycerol, 2.0 mM MgCl2, 1 mM GTP, and 0.5 mM EGTA) was added to the plate. After the mixture was warmed to 37 °C for 1 min, the reaction was initiated by the addition of 55 μL of the tubulin solution which was kept on ice in prior.
as §1

[5] = tested on: HepG2 (human liver carcinoma cell line); test: CCK-8 antiproliferative assay, HepG2; assay type: cell-based; conditions: 48 h, read-out: IC50, Mean ± SE, HepG2

Q: What does the source list for `COc1ccc(C(=O)c2ccc3c(ccn3C)c2)c2c1C=CC(C)(C)O2` [compound 14b, (5-methoxy-2,2-dimethyl-2H-chromen-8-yl)(1-methyl-1H-indol-5-yl)methanone]?
A: IC50 [1]: 27 ± 6 nM; IC50 [2]: 51 ± 24 nM; intracellular tubulin-microtubule homeostasis [3]: heavily disturbed; percentage of cells in G2/M ([4]; A549, 10 nM): 26.88%; percentage of cells in G2/M ([4]; A549, 20 nM): 35.02%; percentage of cells in G2/M ([4]; A549, 50 nM): 52.67%; IC50 [5]: 74 ± 13 nM
